# Measurements: patent publication US9376449B2, “Indole carboxamide derivative” (Astellas Pharma Inc., priority 2012, dated 2016)
# Legend:
# [1] = system: sleep steps of electroencephalogram; test: Measurement test of electroencephalogram in rat (sleep-awake cycle); type: in vivo; settings: for sleep action: rat electroencephalogram, 0.1, 1 and 10 mg/kg intraperitoneally; for change in the occupancy in the respective sleep steps of electroencephalogram: any of the doses 0.1, 1 and 10 mg/kg intraperitoneally
# Method: Test Example 5 Measurement Test of Electroencephalogram in Rat
# In order to accustom the animals to operations during the experiment, handling was carried out for about 1 minute for one example once a day from the next day of the animal acquisition to the day before the administration.
# (2) Method for Preparing Electroencephalogram Electrode-Implanted Specimen
# After the completion of a quarantine period, the animals showing no abnormal health condition were subjected to an electroencephalogram electrode chronic implantation surgery with reference to brain atlas of Pellegrino et al. Under anesthesia with pentobarbital sodium (45 mg/kg, i.p.), the rat was calibrated in a brain stereotaxic apparatus. In the frontal cortex, a monopolar silver ball electrode having a diameter of the tip of about 1 mm was placed on a hard film of the brain. Into the hippocampus, a laminated bipolar electrodes made of stainless steel was stuck. The reference electrode was screwed around the olfactory brain. Further, as for the electromyogram measurement, the lead wire was implanted in the both electrodes about 1 cm between the electrodes in the neck portion. The other end was exposed to the head portion subcutaneously. The electrodes and the lead wires were subjected to soldering with connector sockets and fixed to the skull with a dental resin or the like.
# (3) Sorting and Grouping of Animals
# It was confirmed that twenty five rat examples which had been subjected to an electroencephalogram electrode chronic implantation surgery were recovered from the invasion of the surgery, and stable electroencephalogram were obtained therefrom. The weights of the animals were measured after 6 days from the surgery using an electronic scale balance the day before the first administration, and twenty rats were chosen in the descending order and distributed to perform administration. The administration order for the test materials was determined by a stratified random allocation method using a random number function of a spreadsheet software Excel (Microsoft Corporation).
# The rats were accommodated in a measurement cage under rat feeding and water supply on the morning of the day of administration, and accustomed to the measurement environment. After measuring the weight using an electronic scale balance, a lead wire and a connector socket were connected 30 minutes or more before the start of the electroencephalogram measurement, and the rat was accustomed in the measurement state under no anesthesia and no custody. The test compounds (solvent, 0.1 mg/kg, 1 mg/kg, and 10 mg/kg) were intraperitoneally administered to the rats and the electroencephalogram was measured continuously until 6 hours after the administration.
# The frequency of brain wave were acquired by applying electrical signals of electroencephalogram and of electromyogram an electroencephalogram system and using an electroencephalogram frequency analysis program of a personal computer from the electroencephalograph system. In addition, the image signals of the electroencephalogram waveform were applied to an EEG video system and recorded on a DVD recorder. The behavior observation was carried out through a video camera at the same time as the electroencephalogram measurement and the images were also recorded with the DVD recorder.
# (i) Spontaneous Electroencephalogram
# The presence or absence of abnormality in the electroencephalogram waveform in up to 6 hours from immediately after the administration, to each animal, respectively, was observed.
# The analysis of a sleep-awake cycle was visually carried out using a sleep stage display-supporting program based on the electroencephalogram waveforms acquired with an electroencephalogram frequency analysis program. […]
# [2] = CNS penetration: CSF to plasma unbound concentration ratio in rat; type: in vivo; settings: CSF and plasma (unbound), iv; for Kp uu at 0.25 h: 15 minutes after intravenous administration, CCSF/Cplasma,u, read-out: Kp,uu,CSF,iv15min
# Method: Test Example 4 Test for Evaluating CNS Penetration
# (1) Measurement of Unbound Fraction (fp) in Rat Plasma
# A test compound (100 μg/mL, 50% acetonitrile solution) at 1% (v/v) with respect to the amount of the plasma was added to rat plasma, and dispensed to a sample for a supernatant and a sample for the plasma. The sample for a supernatant was ultracentrifuged at 436,000×g and 37° C. for 140 minutes, and the sample for the plasma was incubated at 37° C. for 140 minutes.
# After 140 minutes, the sample for a supernatant after the ultracentrifugation and the sample for the plasma were taken, and mixed with the blank plasma or the blank supernatant, respectively. Acetonitrile including an internal standard material was added to each of the samples, and after the centrifugation at 2150×g and 4° C. for 10 minutes the supernatant was injected into LC-MS/MS.
# The unbound fraction in the plasma was calculated by the following equation.
# (wherein fp: an unbound fraction in the plasma and D: a dilution rate of the plasma. fu,app=peak area ratio of supernatant sample/peak area ratio of the plasma sample, and peak area ratio=peak area of test compound/peak area of internal standard material).
# (2) The CSF to Plasma Unbound Concentration Ratio in Rat
# A 50% acetonitrile solution and an acetonitrile including internal standard material was added to the collected plasma or CSF. After centrifugation at 4° C. and 2150×g for 10 minutes, the supernatant was injected into LC-MS/MS, and the total concentration of the test compound in the plasma (Cplasma,t) and the concentration of the test compound in CSF (CCSF) were obtained. The unbound concentration in the plasma (Cplasma,u) of the test compound and the CSF-to plasma unbound concentration ratio (Kp,uu,CSF) of the test compound was calculated by the following equation.
# (§1) Ex represents Example No. of the test compound.
# [3] = target: human MT1 receptor (Homo sapiens, UniProt P48039); test: Activation of human MT1 receptor in receptor-expressing HEK293 cells (intracellular Ca2+, FLIPR); type: cell-based; settings: for Emax: HEK293, maximum reaction by ramelteon taken as 100%, solvent only 0%, read-out: MT1 Emax (%); for EC50: HEK293 cells stably expressing human MT1 and Gq/i chimeric G-protein, intracellular Ca2+ by FLIPR
# Chain of human MT1 receptor (P48039 whole entry): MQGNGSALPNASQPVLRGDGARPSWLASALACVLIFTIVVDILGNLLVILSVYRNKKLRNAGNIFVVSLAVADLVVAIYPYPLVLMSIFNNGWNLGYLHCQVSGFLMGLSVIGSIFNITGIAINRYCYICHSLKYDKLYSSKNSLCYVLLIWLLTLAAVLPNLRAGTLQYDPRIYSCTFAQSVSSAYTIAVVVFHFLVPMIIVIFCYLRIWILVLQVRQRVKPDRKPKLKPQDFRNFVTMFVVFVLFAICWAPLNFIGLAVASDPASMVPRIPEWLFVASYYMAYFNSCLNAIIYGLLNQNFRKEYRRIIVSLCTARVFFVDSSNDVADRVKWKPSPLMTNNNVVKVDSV
# Method: (1) Isolation of Human MT1 and MT2 Receptor and Construction of Expression Vector
# A human MT1 receptor gene (GenBank Accession No.: NM_005958.3) and a human MT2 receptor gene (GenBank Accession No.: NM_005959.3) were each introduced into an expression vector pCDNA3.1/Zeo (Invitrogen, Inc.).
# (2) Construction of Cells Stably Expressing Human MT1 and Human MT2 Receptor
# The introduction was carried out according to the attached instructions, using a Lipofectoamine (registered trademark) 2000 Reagent (Invitrogen, Inc.). Zeocin and hygromycin were used as a resistant drug, and the cell was incubated for 15 days at 0.02 mg/mL and 0.05 mg/mL, respectively, thereby acquiring drug-resistant clones.
# (3) Measurement of Intracellular Ca^2+ Concentration by FLIPR (Registered Trademark)
# The respective stably expressing cells were dispensed into 96-well poly-D-lysine-coated plates (Falcon Co.) to 40,000 cells/well the day before the experiment, and incubated overnight in a DMEM (Invitrogen, Inc.) medium including 10% FBS at 37° C. and 5% CO2. The medium was replaced with a loading buffer (washing solution (Hank's balanced salt solution (HBSS), 20 mM HEPES-NaOH, 2.5 mM probenecid) including Fluo-4AM (Dojindo Co.) at 4 μM), and incubated for 1 hour at 37° C. and 5% CO2. Thereafter, the cells were washed with a plate washer (ELx405, BIO-TEK Instrument, Inc.) set with the washing solution, and set in an intracellular Ca^2+ concentration measuring systems (FLIPR (registered trademark), Molecular Device Co.). The test compound was dissolved in the washing solution in advance, diluted to a final concentration of −12 to −5 log M, set in a FLIPR (registered trademark) device together with the cells, and added to the cells in the device. At this time, a change in the intracellular Ca^2+ concentrations was measured.
# as §1
Kp uu at 0.25 h [2],Emax [3],EC50 [3],Kp uu at 10 min ([2]; 10 minutes after the intravenous administration),SMILES,sleep action [1],change in the occupancy in the respective sleep steps of electroencephalogram ([1]; rat),"occupancy of the sleep step of electroencephalogram ([1]; rat, 0.1 mg/kg intraperitoneally, up to 6 hours)","occupancy of the respective sleep step ([1]; rat, 1 mg/kg intraperitoneally, up to 6 hours)"
0.11,102%,0.011 µM,–,"CNC(=O)c1[nH]c2ccc(OC)cc2c1CCNC(=O)C(F)F [Ex 2, 3-{2-[(difluoroacetyl)amino]ethyl}-5-methoxy-N-methyl-1H-indole-2-carboxamide]",there was no sleep action,no change in the occupancy in the respective sleep steps of electroencephalogram could not be seen,–,–
0.08,86%,0.02 µM,–,CNC(=O)c1[nH]c2cc(F)c(OC)cc2c1CCNC(C)=O [Ex 17],there was no sleep action,no change in the occupancy in the respective sleep steps of electroencephalogram could not be seen,–,–
–,100%,0.00028 µM,> 1,"CCC(=O)NCC[C@@H]1CCc2ccc3c(c21)CCO3 [Ramelteon, reference compound]",there is a sleep action,–,tendency that the occupancy of the sleep step of electroencephalogram from a dose of 0.1 mg/kg increases,significantly increases
